Experimental data reported in patent US8785452B2, “Anti-infective compounds” (priority 2008, dated 2014).
Where two headings read alike, the source gives them in different places.

Legend:
[1] = tested on: M. tuberculosis H37Rv-GFP; assay: microbe, parasite or virus in culture; format: cell-based, Mycobacterium tuberculosis; details: Mycobacterium tuberculosis, H37RV, Macrophage
Raw264.7 cells [2] = details: mouse, 5 days; for Primary QIM CellNb: 20 μM
Raw264.7 cells [3] = assay: Cell number (CellNb) from image analysis of the phenotypic cell-based assay; details: for Primary QIM CellNb: primary screen, 20 μM; for QIM Confirm CellNb 2 uM: confirmation
[4] = confirmation, 20 uM, read-out: QIM Confirm % Inhibition 20 uM
[5] = primary screen, 20 μM, read-out: Primary QIM % Inhibition

Structure (SMILES)	inhibition at 20 µM [1, 4]	inhibition at 20 µM [1, 5]	Primary QIM CellNb (Raw264.7 cells [2])	Primary QIM CellNb (Raw264.7 cells [3])	QIM Confirm CellNb 2 uM (Raw264.7 cells [2])	QIM Confirm CellNb 2 uM (Raw264.7 cells [3])
CCc1ccc(/C=C(/C#N)C(=O)OC(C)C)s1 [IPK 000 107 90]	89.6%	79.3%	52.8	494.3	–	–
O=C(CS)Nc1ccccc1Cl [IPK 000 108 27]	44.1%	54.7%	19.0	171.0	–	–
CCOc1ccc(NC(=S)Nc2ccccc2)cc1 [IPK 000 108 78]	68.8%	78.8%	38.3	200.3	–	–
O=C1CSC(N/N=C/c2cc([N+](=O)[O-])ccc2O)N1 (centres unmarked) [IPK 000 109 00]	8.2%	-7.8%	23.8	87.8	–	–
CCOC(=O)/C=C/C(=O)NNC(=O)c1cccs1 [IPK 000 109 99]	28.1%	8.5%	20.3	183.0	101.3	174.3
CCOC(=O)/C=C/C(=O)Nc1sc(Cc2ccccc2)c(C)c1C(N)=O [IPK 000 110 16]	86%	59%	6.0	179.5	–	–
Cc1sc(/N=C/c2ccc([N+](=O)[O-])s2)c(C(N)=O)c1C [IPK 000 110 17]	71.6%	55.6%	12.9	155.5	–	–
CC(/C=N/NC(=O)c1ccccn1)=C\c1ccco1 [IPK 000 110 79]	83.4%	72.9%	22.8	462.3	–	–
CC1=C(Nc2ccc(S(=O)(=O)Nc3nc(C)cc(C)n3)cc2)Sc2ccccc2N1 [IPK 000 112 67]	32.6%	-36.5%	27.6	250.8	–	–
COc1cccc(C2Nc3ccc(C(=O)O)cc3C3C=CCC32)c1 (centres unmarked) [IPK 000 112 80]	55.6%	41.1%	10.7	152.0	98.3	189.0
Cc1cc(/C=C(/C#N)C(=O)Nc2cccc(Br)c2)c(C)n1-c1ccc(C(=O)O)cc1 [IPK 000 113 05]	56.4%	55.4%	31.6	162.0	–	–
O=C(NC12CC3CC(CC(C3)C1)C2)c1ccc([N+](=O)[O-])cc1 [IPK 000 113 77]	74.3%	60.9%	48.4	319.8	–	–
O=[N+]([O-])c1ccc(O)c(C2NN=C(c3ccccc3)S2)c1 (centres unmarked) [IPK 000 114 01]	-1.5%	3.2%	7.3	163.5	–	–
CCCC(=O)/N=C(\N)Nc1nc2ccccc2o1 [IPK 000 122 62]	65.1%	62.8%	26.2	131.5	–	–
NNC(=O)c1ccc(COc2cc(Cl)ccc2Cl)o1 [IPK 000 123 02]	78.2%	76.8%	45.3	411.8	–	–
NNC(=O)c1ccc(COc2ccccc2Cl)o1 [IPK 000 123 03]	72.1%	78.3%	12.0	540.8	–	–
NNC(=O)c1ccc(COc2ccc3c(c2)CCC3)o1 [IPK 000 123 30]	64.1%	77.2%	72.5	296.8	–	–
O=C(NC1CCCCC1)c1ccc(COc2cc(Cl)ccc2Cl)o1 [IPK 000 123 90]	87.7%	73.1%	26.7	205.0	–	–
CN1CCN(NC(=O)c2ccc(COc3ccc(Cl)cc3Cl)o2)CC1 [IPK 000 123 92]	15.4%	45.3%	32.3	135.8	–	–
O=C(Nc1cccnc1)c1ccc(COc2ccc3ccccc3c2)o1 [IPK 000 124 43]	64.7%	35.6%	26.2	168.3	–	–
O=C(Nc1nccs1)c1ccc(COc2ccc(Cl)cc2)o1 [IPK 000 124 54]	75%	75.5%	16.4	503.3	–	–
NNC(=O)c1ccc(COc2ccccc2Br)o1 [IPK 000 124 64]	78.2%	79.9%	54.7	501.5	–	–
